Test results taken from patent US8779158B2, “Trisubstituted pyrazoles as acetylcholine receptor modulators” (Janssen Pharmaceutica NV, priority 2008, dated 2014).

Molecular target: T1, hα7-wt nAChR (Homo sapiens, UniProt P36544)
T1 construct: expressed in transfected cells
Assay: Ca2+ flux imaging (FDSS) (Protocol B), potentiation of the choline response
Assay type: cell-based
Settings: Ca2+ assay as described in D.1; for EC50: "<5" = activity did not reach a top plateau at maximal concentration; for Emax / Emax at 30 µM: read-out: % Efficacy
Protocol: Ca^2+ Flux Imaging (FDSS) (Protocol B)
• Hanks buffered saline solution (HBSS, Invitrogen, Belgium), supplemented with 10 mM HEPES (Invitrogen, Belgium), CaCl2 to a final concentration of 5 mM, 0.1% Bovine serum albumin (Sigma-Aldrich NV, Belgium). b) Calcium-Sensitive Dye—Fluo-4AM • Fluo-4AM (Molecular Probes, USA) was dissolved in DMSO containing 10% Pluronic acid (Molecular Probes, USA) to give a stock solution which was diluted in assay buffer supplemented with 5 mM probenicid (Sigma, Aldrich NV, Belgium) to give a final concentration of 2 μM. c) 384-Well Plates • Black 384 well plate black/clear plates, PDL pre-coated (Corning, Incorporated, USA) d) Calcium Flux Measurement • A Functional drug screening system (FDSS, Hamamatsu) was used to measure intracellular free-calcium flux signals. Method
Monolayers of hα7-wt nAChR-expressing cells were grown in multi-well plates, in particular black-sided, transparent bottomed 384 well plates coated with poly-D-lysine for 24 hours prior to loading with a fluorescent calcium indicator, in a particular embodiment loading with fluo-4AM for up to 120 minutes.
PAM activity was detected in real time by applying the compounds to be tested to the loaded cells along with a α7 nicotinic receptor agonist during constant monitoring of cellular fluorescence in a FDSS. Compounds giving peak fluorescent responses greater than the response due to agonist alone, were considered to be α7 nAChR PAM's. In a particular embodiment, the α7 nicotinic receptor agonist was choline, a more particular embodiment choline applied at a sub-maximal concentration of 100 μM. In a further setting of the present invention the compounds to be tested were applied prior to the α7 nicotinic receptor agonist, in a particular embodiment up to 10 minutes prior to the agonist.
A control response to choline was calculated on each plate from the difference in peak in fluorescence in wells receiving either choline or assay buffer alone. Compounds of the present invention were tested at a concentration range from 0.01 μM to 30 μM. Compounds were considered to have an interesting activity when they potentiated the choline signal at least with 200% when tested at a concentration of 30 μM (the efficacy of 100 μM choline was defined as 100% in the absence of a PAM). An EC50 (or pEC50) was determined as a concentration relating to half the maximal effect, when a clear sigmoidal curve with top plateau was obtained.

T1 sequence (P36544 23-502): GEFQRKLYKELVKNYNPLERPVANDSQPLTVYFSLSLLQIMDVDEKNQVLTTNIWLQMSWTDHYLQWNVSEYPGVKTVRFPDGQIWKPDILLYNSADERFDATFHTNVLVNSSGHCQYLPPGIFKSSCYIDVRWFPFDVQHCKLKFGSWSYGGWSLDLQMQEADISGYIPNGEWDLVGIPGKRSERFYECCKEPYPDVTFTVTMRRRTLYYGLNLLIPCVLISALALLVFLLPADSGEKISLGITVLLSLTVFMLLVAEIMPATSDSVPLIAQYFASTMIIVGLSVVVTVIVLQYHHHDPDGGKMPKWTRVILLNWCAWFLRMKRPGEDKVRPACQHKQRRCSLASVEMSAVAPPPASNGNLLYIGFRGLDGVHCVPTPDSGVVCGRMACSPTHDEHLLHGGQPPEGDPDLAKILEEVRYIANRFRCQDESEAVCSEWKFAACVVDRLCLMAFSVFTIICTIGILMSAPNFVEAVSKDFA

Row | Structure (SMILES) | EC50 [nM] | Emax [%] | Emax at 30 µM [%]
1 | Cc1cc(-c2cc(Nc3cccc(OC(F)(F)F)c3)nn2CC(=O)NC2CC2)cc(C)n1 [compound 147] | 603 | 643 | 
2 | Cc1ccnc(-c2cc(Nc3ccc(F)c(F)c3)nn2C[C@H](C)O)c1 [compound 24] | 2140 | 300 | 
3 | CNC(=O)Cn1nc(Nc2cccc(C(F)(F)F)c2)cc1-c1cc(C)nc(C)c1 [compound 117] | 1480 | 835 | 
4 | CCNC(=O)Cn1nc(Nc2cc(F)c(F)c(F)c2)cc1-c1ccc2c(c1)OCCO2 [compound 78] | 302 |  | 
5 | CCNC(=O)Cn1nc(Nc2cc(F)cc(C(F)(F)F)c2)cc1-c1ccncc1C [compound 31] | 2690 |  | 
6 | CCNC(=O)Cn1nc(Nc2cccc(OC(F)(F)F)c2)cc1-c1cc(C)nc(C)c1 [compound 139] | 646 | 710 | 
7 | CNC(=O)Cn1nc(Nc2cc(F)c(F)c(F)c2)cc1-c1cccnc1 [compound 15] | > 10000 |  | 832
8 | CCNC(=O)Cn1nc(Nc2cc(F)c(F)c(F)c2)cc1-c1cc(C)nc(C)c1 [compound 167] | 263 | 762 | 
9 | CNC(=O)Cn1nc(Nc2ccc(F)c(F)c2)cc1-c1ccnc(NC)c1 [compound 61] | > 10000 |  | 
10 | Cc1ccnc(-c2cc(Nc3ccc(F)c(C(F)(F)F)c3)nn2C[C@H](C)O)c1 [compound 25] | 933 | 500 | 
11 | CNC(=O)Cn1nc(Nc2ccc(F)c(C(F)(F)F)c2)cc1-c1ccnc(C)c1 [compound 34] | 3390 |  | 
12 | CC[C@H](O)Cn1nc(Nc2cc(OC)cc(C(F)(F)F)c2)cc1-c1ccnc(COC)c1 [compound 99] | 955 |  | 
13 | CN(C)C(=O)CCn1nc(Nc2cccc(F)c2)cc1-c1ccc2c(c1)OCCO2 [compound 82] | 135 |  | 
14 | Cc1cc(-c2cc(Nc3ccc(F)c(C(F)(F)F)c3)nn2CC[C@H](C)O)ccn1 [compound 49] | 1820 | 500 | 
15 | CCNc1cc(-c2cc(Nc3ccc(F)c(F)c3F)nn2C[C@H](C)O)ccn1 [compound 133] | 776 | 409 | 
16 | Cc1cc(-c2cc(Nc3ccc(F)c(F)c3)nn2CCC(=O)N(C)C)cc(Cl)n1 [compound 60] | 501 |  | 
17 | CCNC(=O)Cn1nc(Nc2cccc(OC(F)(F)F)c2)cc1-c1ccnc(C)c1 [compound 37] | 1000 |  | 
18 | CNC(=O)Cn1nc(Nc2cccc(Cl)c2F)cc1-c1cc(C)nc(C)c1 [compound 141] | 562 | 519 | 
19 | CCNc1cc(-c2cc(Nc3cc(OC)cc(C(F)(F)F)c3)nn2C[C@H](C)O)ccn1 [compound 63] | 3980 | 700 | 
20 | CC[C@H](O)Cn1nc(Nc2ccc(F)c(C(F)(F)F)c2)cc1-c1ccc(C)nc1 [compound 29] | 1120 | 500 | 
21 | CCNC(=O)Cn1nc(Nc2ccc(F)c(F)c2F)cc1-c1cc(C)nc(C)c1 [compound 148] | 468 |  | 

Row | Structure (SMILES) | EC50 [nM] | Emax [%] | Emax at 30 µM [%]
22 | COc1cc(Nc2cc(-c3ccnc(C)c3C)n(CCC(=O)N(C)C)n2)cc(C(F)(F)F)c1 [compound 52] | 912 |  | 
23 | Cc1cc(-c2cc(Nc3ccc(F)c(F)c3)nn2CC(=O)NC2CC2)cc(C)n1 [compound 160] | 525 | 927 | 
24 | Cc1cc(-c2cc(Nc3cc(F)c(F)c(F)c3)nn2CC(=O)NC2CC2)cc(C)n1 [compound 172] | 186 | 393 | 
25 | Cc1cc(-c2cc(Nc3ccc(F)c(C(F)(F)F)c3)nn2CCC(=O)N(C)C)cc(C)n1 [compound 161] | 240 | 737 | 
26 | Cc1cc(-c2cc(Nc3ccc(F)c(C(F)(F)F)c3)nn2CC(=O)NC2CC2)cc(C)n1 [compound 159] | 457 | 842 | 
27 | CC[C@H](O)Cn1nc(Nc2cc(OC)cc(C(F)(F)F)c2)cc1-c1cc(C)nc(C)c1 [compound 101] | 151 |  | 
28 | CCNc1cc(-c2cc(Nc3ccc(F)c(C(F)(F)F)c3)nn2C[C@H](C)O)cc(C)n1 [compound 67] | 1380 | 800 | 
29 | Cc1cc(-c2cc(Nc3ccc(F)c(C(F)(F)F)c3)nn2C[C@H](C)O)cc(N(C)C)n1 [compound 69] | 794 | 400 | 
30 | CC[C@H](O)Cn1nc(Nc2cc(OC)cc(C(F)(F)F)c2)cc1-c1ccnc(C)c1Cl [compound 115] | 1260 | 516 | 
31 | CNC(=O)Cn1nc(Nc2cc(OC)cc(C(F)(F)F)c2)cc1-c1ccnc(C)c1C [compound 50] | 6170 | 496 | 
32 | CNC(=O)Cn1nc(Nc2ccc3c(c2)OC(F)(F)O3)cc1-c1ccncc1C [compound 89] | > 10000 |  | 
33 | Cc1cc(-c2cc(Nc3cccc(Cl)c3F)nn2CC(=O)NC2CC2)cc(C)n1 [compound 169] | 302 | 577 | 
34 | Cc1cc(-c2cc(Nc3cccc(C(F)(F)F)c3)nn2CC(=O)NC2CCC2)cc(C)n1 [compound 144] | 437 | 444 | 
35 | CNC(=O)Cn1nc(Nc2ccc(F)c(C(F)(F)F)c2)cc1-c1ccc2c(c1)OCCO2 [compound 75] | 219 |  | 
36 | COc1cccc(-c2cc(Nc3ccc(F)c(F)c3)nn2CCC(=O)N(C)C)c1Cl [compound 11] | 145 |  | 
37 | Cc1cc(-c2cc(Nc3ccc(F)c(F)c3)nn2CC(=O)NC2CCC2)cc(C)n1 [compound 171] | 148 | 507 | 
38 | Cc1cc(-c2cc(Nc3cc(F)cc(Cl)c3)nn2C[C@H](C)O)ccn1 [compound 42] | 1120 | 200 | 
39 | CNC(=O)Cn1nc(Nc2cc(F)c(F)c(F)c2)cc1-c1cc(C)nc(C)c1 [compound 127] | 1020 | 616 | 
40 | CNC(=O)Cn1nc(Nc2cccc(OC(F)(F)F)c2)cc1-c1cccnc1 [compound 14] | 5130 |  | 
41 | CNC(=O)Cn1nc(Nc2cccc(C(F)(F)F)c2)cc1-c1cccnc1 [compound 13] | > 10000 |  | 967
42 | CNC(=O)Cn1nc(Nc2cc(F)cc(Cl)c2)cc1-c1ccnc(C)c1 [compound 33] | 1780 |  | 

Row | Structure (SMILES) | EC50 [nM] | Emax [%] | Emax at 30 µM [%]
43 | Cc1cc(-c2cc(Nc3ccc(F)c(C(F)(F)F)c3)nn2CC(=O)NC2CCC2)cc(C)n1 [compound 174] | 219 | 651 | 
44 | CCNC(=O)Cn1nc(Nc2cccc(C(F)(F)F)c2)cc1-c1cccnc1 [compound 18] | > 10000 |  | 592
45 | Cc1cc(-c2cc(Nc3cc(F)cc(Cl)c3)nn2CCC(=O)N(C)C)ccn1 [compound 41] | 389 |  | 
46 | Cc1cc(-c2cc(Nc3cc(F)c(F)c(F)c3)nn2CC(=O)NC2CCC2)cc(C)n1 [compound 179] | 115 | 793 | 
47 | Cc1cc(-c2cc(Nc3ccc(F)c(F)c3F)nn2CC(=O)NC2CC2)ccn1 [compound 116] | 1230 | 596 | 
48 | CCNC(=O)Cn1nc(Nc2cccc(C(F)(F)F)c2)cc1-c1ccc2c(c1)OCCO2 [compound 79] | 219 |  | 
49 | CC[C@H](O)Cn1nc(Nc2cc(F)cc(F)c2)cc1-c1ccnc(Cl)c1 [compound 47] | 437 |  | 
50 | CCNC(=O)Cn1nc(Nc2cccc(OC(F)(F)F)c2)cc1-c1ccc2c(c1)OCCO2 [compound 80] | 204 |  | 
51 | CCNC(=O)Cn1nc(Nc2ccc(F)c(F)c2)cc1-c1ccncc1 [compound 20] | > 10000 |  | 
52 | CNC(=O)Cn1nc(Nc2cc(F)cc(C(F)(F)F)c2)cc1-c1ccncc1C [compound 30] | > 10000 |  | 
53 | CCNC(=O)Cn1nc(Nc2ccc(F)c(C(F)(F)F)c2)cc1-c1ccc2c(c1)OCCO2 [compound 81] | 214 |  | 
54 | Cc1cc(-c2cc(Nc3ccc(F)c(F)c3F)nn2CC(=O)NC2CCC2)cc(C)n1 [compound 182] | 182 |  | 
55 | CN(C)C(=O)CCn1nc(Nc2ccc(F)c(F)c2)cc1-c1ccc2c(c1)OCCO2 [compound 84] | 51.3 |  | 
56 | CNC(=O)Cn1nc(Nc2cccc(OC(F)(F)F)c2)cc1-c1cc(C)nc(C)c1 [compound 129] | 933 | 726 | 
57 | CNC(=O)Cn1nc(Nc2ccc(F)c(C(F)(F)F)c2)cc1-c1cc(C)nc(C)c1 [compound 114] | 1150 |  | 
58 | CC[C@H](O)Cn1nc(Nc2cccc(C(F)(F)F)c2)cc1-c1ccnc(COC)c1 [compound 113] | 1320 |  | 
59 | CCNC(=O)Cn1nc(Nc2cccc(OC(F)(F)F)c2)cc1-c1cccnc1 [compound 17] | > 10000 |  | 
60 | CN(C)C(=O)CCn1nc(Nc2ccc3c(c2)OC(F)(F)O3)cc1-c1ccncc1 [compound 88] | 309 |  | 
61 | CCNC(=O)Cn1nc(Nc2cc(F)cc(Cl)c2)cc1-c1ccnc(C)c1 [compound 39] | 776 |  | 
62 | CCNC(=O)Cn1nc(Nc2ccc3c(c2)OC(F)(F)O3)cc1-c1ccc2c(c1)OCCO2 [compound 98] | 324 |  | 
